According to ChEMBL document CHEMBL3102853, “Carbonic anhydrase inhibitors. Synthesis, and molecular structure of novel series N-substituted N'-(2-arylmethylthio-4-chloro-5-methylbenzenesulfonyl)guanidines and their inhibition of human cytosolic isozymes I and II and the transmembrane tumor-associated isozymes IX and XII” (Eur J Med Chem, 2014):

How the values were obtained:
Assay type in all cases: functional
[1] = tested on: MDA-MB-468; assay: Cytotoxicity against human MDA-MB-468 cells
[2] = tested on: IGROV-1; assay: Cytotoxicity against human IGROV1 cells
[3] = tested on: T47D; assay: Cytotoxicity against human T47D cells
[4] = tested on: BT-549; assay: Cytotoxicity against human BT549 cells
[5] = Cytotoxicity against human Hs 578T cells
[6] = tested on: MCF7; assay: Cytotoxicity against human MCF7 cells
[7] = tested on: MDA-MB-231; assay: Cytotoxicity against human MDA-MB-231 cells
[8] = tested on: PC-3; assay: Cytotoxicity against human PC3 cells
[9] = tested on: A498; assay: Cytotoxicity against human A498 cells
[10] = tested on: OVCAR-8; assay: Cytotoxicity against human OVCAR8 cells
[11] = tested on: OVCAR-3; assay: Cytotoxicity against human OVCAR3 cells
[12] = Cytotoxicity against human OVCAR4 cells
[13] = tested on: UACC-62; assay: Cytotoxicity against human UACC62 cells
[14] = Cytotoxicity against human UACC257 cells
[15] = tested on: SK-MEL-2; assay: Cytotoxicity against human SK-MEL-2 cells
[16] = tested on: SK-MEL-28; assay: Cytotoxicity against human SK-MEL-28 cells
[17] = tested on: MDA-MB-435; assay: Cytotoxicity against human MDA-MB-435 cells
[18] = tested on: M14; assay: Cytotoxicity against human M14 cells
[19] = tested on: Malme-3M; assay: Cytotoxicity against human MALME-3M cells
[20] = tested on: LOX IMVI; assay: Cytotoxicity against human LOXIMVI cells
[21] = tested on: SNB-19; assay: Cytotoxicity against human SNB19 cells
[22] = tested on: SNB-75; assay: Cytotoxicity against human SNB75 cells
[23] = tested on: SF-268; assay: Cytotoxicity against human SF268 cells
[24] = tested on: KM12; assay: Cytotoxicity against human KM12 cells
[25] = tested on: SF-539; assay: Cytotoxicity against human SF539 cells
[26] = tested on: HCT-116; assay: Cytotoxicity against human HCT116 cells
[27] = tested on: HCC 2998; assay: Cytotoxicity against human HCC2998 cells
[28] = tested on: NCI-H522; assay: Cytotoxicity against human NCI-H522 cells
[29] = tested on: COLO 205; assay: Cytotoxicity against human COLO205 cells
[30] = tested on: NCI-H460; assay: Cytotoxicity against human NCI-H460 cells
[31] = tested on: HOP-92; assay: Cytotoxicity against human HOP92 cells
[32] = tested on: RPMI-8226; assay: Cytotoxicity against human RPMI8226 cells
[33] = tested on: SR; assay: Cytotoxicity against human SR cells
[34] = tested on: MOLT-4; assay: Cytotoxicity against human MOLT4 cells
[35] = tested on: K562; assay: Cytotoxicity against human K562 cells
[36] = tested on: CCRF-CEM; assay: Cytotoxicity against human CCRF-CEM cells
[37] = tested on: HL-60(TB); assay: Cytotoxicity against human HL-60(TB) cells
[38] = Cytotoxicity against human Hs 578T cells at 10 uM; details: read-out: GI
[39] = tested on: MDA-MB-468; assay: Cytotoxicity against human MDA-MB-468 cells at 10 uM; details: read-out: GI
[40] = tested on: MCF7; assay: Cytotoxicity against human MCF7 cells at 10 uM; details: read-out: GI
[41] = tested on: T47D; assay: Cytotoxicity against human T47D cells at 10 uM; details: read-out: GI
[42] = tested on: DU-145; assay: Cytotoxicity against human DU145 cells at 10 uM; details: read-out: GI
[43] = tested on: PC-3; assay: Cytotoxicity against human PC3 cells at 10 uM; details: read-out: GI
[44] = tested on: A498; assay: Cytotoxicity against human A498 cells at 10 uM; details: read-out: GI
[45] = Cytotoxicity against human NCI-ADR-RES cells at 10 uM; details: read-out: GI
[46] = tested on: LOX IMVI; assay: Cytotoxicity against human LOXIMVI cells at 10 uM; details: read-out: GI
[47] = tested on: OVCAR-3; assay: Cytotoxicity against human OVCAR3 cells at 10 uM; details: read-out: GI
[48] = tested on: UACC-62; assay: Cytotoxicity against human UACC62 cells at 10 uM; details: read-out: GI
[49] = tested on: SK-MEL-2; assay: Cytotoxicity against human SK-MEL-2 cells at 10 uM; details: read-out: GI
[50] = tested on: SF-268; assay: Cytotoxicity against human SF268 cells at 10 uM; details: read-out: GI
[51] = tested on: SW-620; assay: Cytotoxicity against human SW620 cells at 10 uM; details: read-out: GI
[52] = tested on: SNB-75; assay: Cytotoxicity against human SNB75 cells at 10 uM; details: read-out: GI
[53] = tested on: KM12; assay: Cytotoxicity against human KM12 cells at 10 uM; details: read-out: GI
[54] = tested on: HT-29; assay: Cytotoxicity against human HT-29 cells at 10 uM; details: read-out: GI
[55] = tested on: HOP-92; assay: Cytotoxicity against human HOP92 cells at 10 uM; details: read-out: GI
[56] = tested on: NCI-H460; assay: Cytotoxicity against human NCI-H460 cells at 10 uM; details: read-out: GI
[57] = tested on: A549; assay: Cytotoxicity against human A549 cells at 10 uM; details: read-out: GI
[58] = tested on: SR; assay: Cytotoxicity against human SR cells at 10 uM; details: read-out: GI
[59] = tested on: MOLT-4; assay: Cytotoxicity against human MOLT4 cells at 10 uM; details: read-out: GI
[60] = tested on: RPMI-8226; assay: Cytotoxicity against human RPMI8226 cells at 10 uM; details: read-out: GI
[61] = tested on: HL-60(TB); assay: Cytotoxicity against human HL-60(TB) cells at 10 uM; details: read-out: GI
[62] = read-out: LC50 (the source's name)

Compound: Cc1cc(S(=O)(=O)NC(=N)NCc2ccc(S(N)(=O)=O)cc2)c(SCc2ccc(C(F)(F)F)cc2)cc1Cl
- GI50 [1]: 2.9 µM
- TGI [1]: 13.8 µM
- CC50 [1, 62]: 66.4 µM
- GI50 [2]: 4.9 µM
- TGI [2]: 17.7 µM
- CC50 [2, 62]: 64.8 µM
- GI50 [3]: 4.7 µM
- TGI [3]: 20.7 µM
- CC50 [3, 62]: 84.4 µM
- GI50 [4]: 4.4 µM
- TGI [4]: 12.9 µM
- CC50 [4, 62]: 46.9 µM
- GI50 [5]: 4.6 µM
- TGI [5]: 24.1 µM
- CC50 [5, 62]: > 100 µM
- GI50 [6]: 3.3 µM
- TGI [6]: 13.6 µM
- CC50 [6, 62]: 67.1 µM
- GI50 [7]: 3.1 µM
- TGI [7]: 8.9 µM
- CC50 [7, 62]: 34.5 µM
- GI50 [8]: 3.3 µM
- TGI [8]: 12.8 µM
- CC50 [8, 62]: 43.2 µM
- GI50 [9]: 3.1 µM
- TGI [9]: 17.3 µM
- CC50 [9, 62]: 46.5 µM
- GI50 [10]: 5 µM
- TGI [10]: 21 µM
- CC50 [10, 62]: 70.2 µM
- GI50 [11]: 4.3 µM
- TGI [11]: 15.4 µM
- CC50 [11, 62]: 41 µM
- GI50 ([12]; OVCAR-4): 4.2 µM
- TGI ([12]; OVCAR-4): 20.3 µM
- CC50 ([12]; OVCAR-4, read-out: LC50 (the source's name)): 75.9 µM
- GI50 [13]: 2.6 µM
- TGI [13]: 9.1 µM
- CC50 [13, 62]: 32 µM
- GI50 ([14]; UACC-257): 3.7 µM
- TGI ([14]; UACC-257): 14.7 µM
- CC50 ([14]; UACC-257, read-out: LC50 (the source's name)): 39.4 µM
- GI50 [15]: 2.5 µM
- TGI [15]: 6.2 µM
- CC50 [15, 62]: 22.2 µM
- GI50 [16]: 3.6 µM
- TGI [16]: 14 µM
- CC50 [16, 62]: 44.3 µM
- GI50 [17]: 3.8 µM
- TGI [17]: 12.5 µM
- CC50 [17, 62]: 41.9 µM
- GI50 [18]: 4.5 µM
- TGI [18]: 16.8 µM
- CC50 [18, 62]: 49.6 µM
- GI50 [19]: 3.8 µM
- TGI [19]: 16.3 µM
- CC50 [19, 62]: 49.5 µM
- GI50 [20]: 6.1 µM
- TGI [20]: 20.5 µM
- CC50 [20, 62]: 54.3 µM
- GI50 [21]: 5 µM
- TGI [21]: 19.3 µM
- CC50 [21, 62]: 54.4 µM
- GI50 [22]: 3 µM
- TGI [22]: 15.9 µM
- CC50 [22, 62]: 56.4 µM
- GI50 [23]: 4.8 µM
- TGI [23]: 18.5 µM
- CC50 [23, 62]: 55.8 µM
- GI50 [24]: 3.1 µM
- TGI [24]: 10.1 µM
- CC50 [24, 62]: 41.7 µM
- GI50 [25]: 5.2 µM
- TGI [25]: 17.9 µM
- CC50 [25, 62]: 44.8 µM
- GI50 [26]: 4.1 µM
- TGI [26]: 15.9 µM
- CC50 [26, 62]: 46.6 µM
- GI50 [27]: 3.1 µM
- TGI [27]: 10.4 µM
- CC50 [27, 62]: 41.7 µM
- GI50 [28]: 4.6 µM
- TGI [28]: 16.8 µM
- CC50 [28, 62]: 42.3 µM
- GI50 [29]: 3.5 µM
- TGI [29]: 11.4 µM
- CC50 [29, 62]: 58.1 µM
- GI50 [30]: 3.8 µM
- TGI [30]: 15.7 µM
- CC50 [30, 62]: 63.9 µM
- GI50 [31]: 2.9 µM
- TGI [31]: 8.3 µM
- CC50 [31, 62]: 32.4 µM
- GI50 [32]: 2.8 µM
- TGI [32]: 9.1 µM
- CC50 [32, 62]: 98.6 µM
- GI50 [33]: 2.4 µM
- TGI [33]: 6.8 µM
- CC50 [33, 62]: > 100 µM
- GI50 [34]: 3 µM
- TGI [34]: 10.5 µM
- CC50 [34, 62]: > 100 µM
- GI50 [35]: 3.7 µM
- TGI [35]: 25.3 µM
- CC50 [35, 62]: > 100 µM
- GI50 [36]: 3.5 µM
- TGI [36]: 13.4 µM
- CC50 [36, 62]: 85.3 µM
- GI50 [37]: 2.4 µM
- TGI [37]: 6.4 µM
- CC50 [37, 62]: 54.4 µM
- inhibition of growth at 10 µM [38]: 68%
- inhibition of growth at 10 µM [39]: 37%
- inhibition of growth at 10 µM [40]: 47%
- inhibition of growth at 10 µM [41]: 30%
- inhibition of growth at 10 µM [42]: 57%
- inhibition of growth at 10 µM [43]: 83%
- inhibition of growth at 10 µM [44]: 63%
- inhibition of growth at 10 µM [45]: 64%
- inhibition of growth at 10 µM [46]: 67%
- inhibition of growth at 10 µM [47]: 1%
- inhibition of growth at 10 µM [48]: 59%
- inhibition of growth at 10 µM [49]: 94%
- inhibition of growth at 10 µM [50]: 69%
- inhibition of growth at 10 µM [51]: 68%
- inhibition of growth at 10 µM [52]: 68%
- inhibition of growth at 10 µM [53]: 89%
- inhibition of growth at 10 µM [54]: 79%
- inhibition of growth at 10 µM [55]: 89%
- inhibition of growth at 10 µM [56]: 53%
- inhibition of growth at 10 µM [57]: 60%
- inhibition of growth at 10 µM [58]: 17%
- inhibition of growth at 10 µM [59]: 48%
- inhibition of growth at 10 µM [60]: 58%
- inhibition of growth at 10 µM [61]: 83%
